Literature values as cited in patent US20200354441A1, “TREATMENT OF DISORDERS” (Apellis Pharmaceuticals, Inc., priority 2017, published 2020).

Columns and labels:
[1] = tested on: complement activation (alternative pathway); details: alternative pathway-mediated erythrocyte lysis assay (WO2004/026328)
complement activation = details: relative to compstatin amidated at the C-terminus; published data (WO2004/026328, WO2007044668, Mallik 2005, Katragadda 2006)

| Compound | IC50 [1] | Activity over compstatin (complement activation) |
| --- | --- | --- |
| CC[C@H](C)[C@H](N)C(=O)N[C@H]1CSSC[C@@H](C(=O)N[C@H](C(N)=O)[C@@H](C)O)NC(=O)[C@H](CCCN=C(N)N)NC(=O)[C@H](Cc2cnc[nH]2)NC(=O)[C@H](Cc2cnc[nH]2)NC(=O)CNC(=O)[C@H](Cc2c[nH]c3ccccc23)NC(=O)[C@H](CC(=O)O)NC(=O)[C@H](CCC(N)=O)NC(=O)[C@H](C(C)C)NC(=O)[C@H](C(C)C)NC1=O [Compstatin, H-ICVVQDWGHHRCT-CONH2] | 12 µM |  |
| Ac-ICVWQDWGAHRCdT-COOH [Ac-V4W/H9A/T13dT -OH] |  | 55× more |
| Ac-ICVVQDWGHHRCT-CONH2 [Ac-compstatin] |  | 3× more |
| H-GICV(6fW)QD(6fW)GAHRCTN-COOH (6-fluoro-Trp, C-terminal acid) [+G/V4(6fW)/W7(6fW)H9A+N-OH] |  | 126× more |
| Ac-ICVWQD(5fW)GAHRCT-CONH2 [Ac-V4W/W7(5fW)/H9A] |  | 121× more |
